Data on 3 molecules can be found in US20200383985A1, “Inhibitors of Protease Activated Receptor-2” (Endosome Therapeutics, Inc., priority 2017, published 2020).

Read-outs that look alike come from different tables or passages of the source.

One test addresses T1, human (h) PAR2 (Homo sapiens, UniProt P55085).
T1 construct: expressed in transfected cells; host or cells: KNRK cells (KNRK-hPAR2)
T1 sequence (P55085 26-397): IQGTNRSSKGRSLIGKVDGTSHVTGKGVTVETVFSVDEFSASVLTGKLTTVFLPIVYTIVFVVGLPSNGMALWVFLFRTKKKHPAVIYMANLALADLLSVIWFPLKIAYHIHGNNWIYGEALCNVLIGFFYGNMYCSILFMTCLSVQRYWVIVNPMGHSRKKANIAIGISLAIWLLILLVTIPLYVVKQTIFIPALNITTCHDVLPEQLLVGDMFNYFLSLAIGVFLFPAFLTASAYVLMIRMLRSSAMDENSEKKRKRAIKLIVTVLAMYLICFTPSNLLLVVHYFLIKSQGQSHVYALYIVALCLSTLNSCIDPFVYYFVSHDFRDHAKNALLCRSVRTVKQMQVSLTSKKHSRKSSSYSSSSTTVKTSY
Description: IP1 accumulation assay in KNRK-hPAR2 cells. The format is cell-based.

A further test deals with mice. Briefly: Paw inflammation after intraplantar injection (paw thickness, neutrophil infiltration). The conditions noted are these: WT mice; for paw thickness after intraplantar protease: calipers. The format is in vivo, mouse. The source says:
Proteases may induce pain by activating PAR2 on nociceptors or other cell types. To determine the contribution of PAR2 on nociceptors, mice were bred expressing PAR2 flanked by LoxP sites (Par2^lox/lox) with mice expressing Cre recombinase targeted to nociceptors using the NaV1.8 promoter (Scn10a) (Stirling L. C. et al., Pain 2005, 113(1-2): 27-36). Par2-NaV1.8 mice lacked immunoreactive PAR2 in NaV1.8-positive nociceptors (FIG. 1A). Whereas 31% (20 of 65) of small-diameter (<25 μm) DRG neurons from WT mice responded to trypsin (100 nM) with increased [Ca^2+]i, only 6% (3 of 51) of neurons from Par2-NaV1.8 mice responded (FIGS. 1B, 11A, and 11B). Nociception was assessed by measuring withdrawal responses to stimulation of the plantar surface of the hindpaw with von Frey filaments. […] In Par2-NaV1.8 mice, the initial responses were maintained, but responses after 120 min were diminished. […] Trypsin-induced inflammation was markedly diminished in Par2-NaV1.8 mice.
Mice were acclimatized to the experimental apparatus, room and investigator for 1-2 h on 2 successive days before studies. Investigators were blinded to the test agents. Mice were sedated (5% isoflurane) for intraplantar injections. Dy4a, Dy4 inact, PS2, PS2 inact (all 50 μM) or vehicle (0.2% DMSO in 0.9% NaCl) (10 μl) was injected into the left hindpaw. After 30 min, trypsin (10 or 80 nM), CS (2.5 or 5 μM) or NE (1.2 or 3.9 μM) (all 10 μl) was injected into the same hindpaw. Mechanical nociceptive responses were evaluated by examining paw withdrawal to stimulation of the plantar surface of the hind-paw with calibrated von Frey filaments. von Frey scores were measured in triplicate to establish a baseline for each animal on the day before experiments, and were then measured for up to 4 h after protease administration. To assess edema, paw thickness was measured at the site of injection between the plantar and the dorsal surfaces of the paw using digital calipers. […] Ly6G/Ly6c was detected with goat anti-rat horseradish peroxidase conjugated multimer incubated for 16 min.

For `Cc1nc(C(=O)N2CCN(C(=O)c3cn4nc(-c5ccc(F)cc5)cc(C(C)(C)C)c4n3)C(C)(C)C2)n[nH]1` [Compound I-343, (8-(tert-butyl)-6-(4-fluorophenyl)imidazo[1,2-b]pyridazin-2-yl)(2,2-dimethyl-4-(5-methyl-1H-1,2,4-triazole-3-carbonyl)piperazin-1-yl)methanone], the IC50 at human (h) PAR2 (2F (100 nM)-induced IP1, KNRK-hPAR2 cells, read-out: KNRK-PAR2 100 nM 2F (IC50)) is 0.666 µM; on human (h) PAR2 (trypsin (30 nM), read-out: IC50, trypsin-induced IP1 in KNRK-hPAR2 cells), 7.51 µM; on human (h) PAR2 (trypsin (30 nM), read-out: pIC50, trypsin-induced IP1 in KNRK-hPAR2 cells (converted)) it was 7.41 µM.

Turning to “NE: protease (elastase) activating PAR2 by biased mechanisms”, the “paw thickness after intraplantar protease” value with mice is listed as “increased paw thickness”.

trypsin: in the test with mice (after 4 h), the “neutrophil influx into the paw” value is given as “stimulated an influx of neutrophils”. Further, the “paw thickness after intraplantar protease” value with mice is listed as “increased paw thickness”.
